Experimental data reported in patent US20260008862A1, “Bispecific Anti-BCMA x Anti-CD3 Antibodies and Uses Thereof” (Regeneron Pharmaceuticals, Inc., priority 2018, published 2026).
pEC50: −log10 of the molar value.

What was measured:
[1] = test system: BCMA-expressing NCI-H929 tumors; test: NCI-H929 + PBMC xenogenic tumor model, immediate treatment, dose response (Example 11); assay type: in vivo, mouse
Experimental: To determine the in vivo efficacy of anti-BCMA×anti-CD3 bispecific antibodies (Abs), a xenogenic tumor study was performed. Immunodeficient NOD.Cg-Prkdc^scidIl2rg^tm1Wji/SzJ (NSG) mice were subcutaneously implanted with a mixture of 10×10^6 BCMA-expressing NCI-H929 human multiple myeloma tumor cells and 0.5×10^6 human peripheral blood mononuclear cells (PBMC) isolated from a normal, healthy donor. […] The mice were administered these Abs twice per week for a total of seven doses, and tumor growth was assessed over 60 days. While BCMA^+ NCI-H929 tumors grew similarly in the vehicle- and CD3-binding control-treated mice, both anti-BCMA×anti-CD3 Abs that were tested prevented the growth of tumors in a dose-dependent manner in vivo.
Implantation and measurement of xenogenic tumors: NSG mice were subcutaneously implanted with a mixture of 10×10^6 BCMA-expressing NCI-H929 multiple myeloma cells and 0.5×10^6 PBMC derived from a normal, healthy donor. […] The mice were administered Abs twice per week for a total of seven doses. Tumor growth was measured with calipers twice per week for the duration of the experiment.
(§1) Calculation of xenogenic tumor growth and inhibition: In order to determine tumor volume by external caliper, the greatest longitudinal diameter (length in mm) and the greatest transverse diameter (width in mm) were determined. Tumor volumes based on caliper measurements were calculated by the formula: Volume (mm^3)=(length×width^2)/2.

[2] = target: T1, cynomolgus CD3 (mfCD3 engineered Jurkat cell line) (Macaca fascicularis, UniProt Q95LI5+Q95LI8); test: FACS binding to mfCD3 engineered Jurkat cells; settings: median EC50, FACS binding
T1 construct: expressed in transfected cells; host or cells: Jurkat cells, CRISPR/Cas9-engineered (mfCD3 engineered Jurkat cell line)
Experimental: Flow cytometric analysis was utilized to determine binding of BCMA×CD3 bispecific antibodies to human and cynomolgus CD3 (Jurkat cells, mfCD3 engineered Jurkat cells, primary human CD8+ and cynomolgus CD8+ T cells). Briefly, 1e05 cells/well were incubated in the presence of FACS wash with block (PBS+1% filtered FBS+5% mouse serum) with a serial dilution of BCMA×CD3 and control antibodies for 30 minutes on ice. After incubation, the cells were washed twice with cold FACS wash (PBS+1% filtered FBS) and bound antibody was detected by incubating with Alexa647-conjugated anti-human secondary antibody on ice for an additional 30 minutes. Wells containing no antibody or secondary only were used as a control. For the detection of monkey and human T cells, a cocktail of human and cynomolgus cross-reactive antibodies to CD4, CD8 and CD16 was added to the anti-human secondary. After incubation, cells were washed, re-suspended in 200 μL cold PBS containing 1% filtered FBS and analyzed by flow cytometry on a BD FACS Canto II. Cells were gated by FSC-H by FSC-A to select singlet events, followed by side and forward scatters to select for live events. For monkey T cells, additional gating on CD8+/CD16− cells was performed.
EC50 values for FACS binding were calculated using 4-parameter non-linear regression analysis in Prism software. […]

[3] = test system: BCMA-expressing MOLP-8 tumors; test: MOLP-8 + PBMC subcutaneous xenogenic tumor model, dose response (Example 13); assay type: in vivo, mouse
Experimental: To determine the in vivo efficacy of anti-BCMA×anti-CD3 bispecific antibodies (Abs), a xenogenic tumor study was performed. Immunodeficient NOD.Cg-Prkdc^scidIl2rg^tm1Wji/SzJ (NSG) mice were subcutaneously implanted with a mixture of 5×10^6 BCMA-expressing MOLP-8 human multiple myeloma tumor cells and 1×10^6 human peripheral blood mononuclear cells (PBMC) isolated from a normal, healthy donor. […] The mice were administered these Abs twice per week for a total of seven doses, and tumor growth was assessed over 56 days. While the BCMA^+ MOLP-8 tumors grew similarly in the vehicle- and CD3-binding control-treated mice, both BCMA×CD3 Abs that were tested prevented the growth of tumors in a dose-dependent manner in vivo.
Implantation and measurement of xenogenic tumors: NSG mice were subcutaneously implanted with a mixture of 5×10^6 BCMA-expressing MOLP-8 multiple myeloma cells and 1×10^6 PBMC derived from a normal, healthy donor. […] The mice were administered Abs twice per week for a total of seven doses. Tumor growth was measured by caliper twice per week for the duration of the experiment.
as §1

T1 sequence (Q95LI5 22-198, change not shown): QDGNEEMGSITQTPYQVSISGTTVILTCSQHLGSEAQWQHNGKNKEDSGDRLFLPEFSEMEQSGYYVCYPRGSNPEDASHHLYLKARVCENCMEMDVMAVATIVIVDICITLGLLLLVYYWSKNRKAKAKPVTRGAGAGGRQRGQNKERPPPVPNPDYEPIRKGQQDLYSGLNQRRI
T1 sequence (Q95LI8 22-171, change not shown): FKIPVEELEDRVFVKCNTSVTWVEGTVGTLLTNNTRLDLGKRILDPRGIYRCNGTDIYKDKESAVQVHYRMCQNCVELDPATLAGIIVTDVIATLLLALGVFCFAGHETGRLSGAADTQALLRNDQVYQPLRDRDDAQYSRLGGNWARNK
T1 sequence (P09693 23-182 partner): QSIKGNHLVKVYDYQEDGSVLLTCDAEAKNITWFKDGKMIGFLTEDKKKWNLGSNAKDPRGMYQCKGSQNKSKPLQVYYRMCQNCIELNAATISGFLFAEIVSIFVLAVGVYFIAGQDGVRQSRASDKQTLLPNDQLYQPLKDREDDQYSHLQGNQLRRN
T1 sequence (P20963 22-164 partner): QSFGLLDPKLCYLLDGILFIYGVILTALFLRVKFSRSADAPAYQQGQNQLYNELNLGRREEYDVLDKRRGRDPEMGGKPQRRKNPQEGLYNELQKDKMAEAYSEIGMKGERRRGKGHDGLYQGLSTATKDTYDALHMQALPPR

With “REGN5458: anti-BCMA×anti-CD3 bispecific antibody: BCMA HCVR of mAb21581 (SEQ 66), CD3 HCVR of mAb7221G (SEQ 90), common LCVR SEQ 82” the “Average Tumor Size (mm3) ± SEM on Day 7” value ([1]; 0.04 mg/kg) was 30.8 ± 5.5 mm3, the “Average Tumor Size (mm3) ± SEM on Day 12” value ([1]; 0.04 mg/kg) was 71.5 ± 22.4 mm3 and the “Average Tumor Size (mm3) ± SEM on Day 15” value ([1]; 0.04 mg/kg) was 133.4 ± 50.9 mm3. For the same substance, the “Average Tumor Size (mm3) ± SEM on Day 19” value ([1]; 0.04 mg/kg) was 413.7 ± 162.7 mm3, the “Average Tumor Size (mm3) ± SEM on Day 22” value ([1]; 0.04 mg/kg) was 669.4 ± 248.5 mm3 and the “Average Tumor Size (mm3) ± SEM on Day 26” value ([1]; 0.04 mg/kg) was 1167.0 ± 431.7 mm3. For the same substance, the “Average Tumor Size (mm3) ± SEM on Day 29” value ([1]; 0.04 mg/kg) was 1781.8 ± 620.7 mm3, the “Average Tumor Size (mm3) ± SEM on Day 4” value ([1]; 0.4 mg/kg) was 31.9 ± 2.0 mm3 and the “Average Tumor Size (mm3) ± SEM on Day 7” value ([1]; 0.4 mg/kg) was 11.3 ± 3.0 mm3. The “Average Tumor Size (mm3) ± SEM on Day 15” value ([1]; 0.4 mg/kg) was 0 ± 0 mm3, the “Average Tumor Size (mm3) ± SEM on Day 19” value ([1]; 0.4 mg/kg) was 0 ± 0 mm3 and the “Average Tumor Size (mm3) ± SEM on Day 22” value ([1]; 0.4 mg/kg) was 0 ± 0 mm3. For the same substance, the “Average Tumor Size (mm3) ± SEM on Day 26” value ([1]; 0.4 mg/kg) was 0 ± 0 mm3, the “Average Tumor Size (mm3) ± SEM on Day 29” value ([1]; 0.4 mg/kg) was 0 ± 0 mm3 and the “Average Tumor Size (mm3) ± SEM on Day 34” value ([1]; 0.4 mg/kg) was 0 ± 0 mm3. For the same substance, the “Average Tumor Size (mm3) ± SEM on Day 39” value ([1]; 0.4 mg/kg) was 0 ± 0 mm3, the “Average Tumor Size (mm3) ± SEM on Day 42” value ([1]; 0.4 mg/kg) was 0 ± 0 mm3 and the “Average Tumor Size (mm3) ± SEM on Day 46” value ([1]; 0.4 mg/kg) was 0 ± 0 mm3. The “Average Tumor Size (mm3) ± SEM on Day 55” value ([1]; 0.4 mg/kg) was 0 ± 0 mm3, the “Average Tumor Size (mm3) ± SEM on Day 60” value ([1]; 0.4 mg/kg) was 0 ± 0 mm3 and the “Average Tumor Size (mm3) ± SEM on Day 4” value ([1]; 4 mg/kg) was 18.0 ± 1.2 mm3. The “Average Tumor Size (mm3) ± SEM on Day 12” value ([1]; 4 mg/kg) was 0 ± 0 mm3, the “Average Tumor Size (mm3) ± SEM on Day 15” value ([1]; 4 mg/kg) was 0 ± 0 mm3 and the “Average Tumor Size (mm3) ± SEM on Day 19” value ([1]; 4 mg/kg) was 0 ± 0 mm3. For the same substance, the “Average Tumor Size (mm3) ± SEM on Day 22” value ([1]; 4 mg/kg) was 0 ± 0 mm3, the “Average Tumor Size (mm3) ± SEM on Day 26” value ([1]; 4 mg/kg) was 0 ± 0 mm3 and the “Average Tumor Size (mm3) ± SEM on Day 29” value ([1]; 4 mg/kg) was 0 ± 0 mm3. For the same substance, the “Average Tumor Size (mm3) ± SEM on Day 34” value ([1]; 4 mg/kg) was 0 ± 0 mm3, the “Average Tumor Size (mm3) ± SEM on Day 39” value ([1]; 4 mg/kg) was 0 ± 0 mm3 and the “Average Tumor Size (mm3) ± SEM on Day 42” value ([1]; 4 mg/kg) was 0 ± 0 mm3. The “Average Tumor Size (mm3) ± SEM on Day 46” value ([1]; 4 mg/kg) was 0 ± 0 mm3, the “Average Tumor Size (mm3) ± SEM on Day 55” value ([1]; 4 mg/kg) was 0 ± 0 mm3 and the “Average Tumor Size (mm3) ± SEM on Day 60” value ([1]; 4 mg/kg) was 0 ± 0 mm3. The pEC50 [2] was 7.82, the “Average Tumor Size (mm3) ± SEM on Day 3” value ([3]; 0.04 mg/kg) was 9.3 ± 2.4 mm3 and the “Average Tumor Size (mm3) ± SEM on Day 7” value ([3]; 0.04 mg/kg) was 18.3 ± 5.0 mm3. The “Average Tumor Size (mm3) ± SEM on Day 10” value ([3]; 0.04 mg/kg) was 73.9 ± 25.7 mm3, the “Average Tumor Size (mm3) ± SEM on Day 14” value ([3]; 0.04 mg/kg) was 255.4 ± 79.7 mm3 and the “Average Tumor Size (mm3) ± SEM on Day 17” value ([3]; 0.04 mg/kg) was 494.3 ± 144.3 mm3. The “Average Tumor Size (mm3) ± SEM on Day 21” value ([3]; 0.04 mg/kg) was 1373.0 ± 366.6 mm3, the “Average Tumor Size (mm3) ± SEM on Day 23” value ([3]; 0.04 mg/kg) was 1882.3 ± 551.5 mm3 and the “Average Tumor Size (mm3) ± SEM on Day 28” value ([3]; 0.04 mg/kg) was 2542.5 ± 613.3 mm3. The “Average Tumor Size (mm3) ± SEM on Day 31” value ([3]; 0.04 mg/kg) was 2906.1 ± 532.6 mm3, the “Average Tumor Size (mm3) ± SEM on Day 35” value ([3]; 0.04 mg/kg) was 3538.0 ± 0.0 mm3 and the “Average Tumor Size (mm3) ± SEM on Day 3” value ([3]; 0.4 mg/kg) was 13.5 ± 1.5 mm3. The “Average Tumor Size (mm3) ± SEM on Day 10” value ([3]; 0.4 mg/kg) was 0 ± 0 mm3, the “Average Tumor Size (mm3) ± SEM on Day 14” value ([3]; 0.4 mg/kg) was 0 ± 0 mm3 and the “Average Tumor Size (mm3) ± SEM on Day 17” value ([3]; 0.4 mg/kg) was 1.7 ± 1.7 mm3. For the same substance, the “Average Tumor Size (mm3) ± SEM on Day 21” value ([3]; 0.4 mg/kg) was 5.3 ± 5.3 mm3, the “Average Tumor Size (mm3) ± SEM on Day 23” value ([3]; 0.4 mg/kg) was 9.7 ± 9.7 mm3 and the “Average Tumor Size (mm3) ± SEM on Day 28” value ([3]; 0.4 mg/kg) was 47.4 ± 47.4 mm3. The “Average Tumor Size (mm3) ± SEM on Day 31” value ([3]; 0.4 mg/kg) was 104.7 ± 92.6 mm3, the “Average Tumor Size (mm3) ± SEM on Day 35” value ([3]; 0.4 mg/kg) was 375.1 ± 307.5 mm3 and the “Average Tumor Size (mm3) ± SEM on Day 42” value ([3]; 0.4 mg/kg) was 968.8 ± 689.2 mm3. The “Average Tumor Size (mm3) ± SEM on Day 56” value ([3]; 0.4 mg/kg) was 1742.4 ± 635.2 mm3, the “Average Tumor Size (mm3) ± SEM on Day 3” value ([3]; 4 mg/kg) was 12.5 ± 1.3 mm3 and the “Average Tumor Size (mm3) ± SEM on Day 7” value ([3]; 4 mg/kg) was 0 ± 0 mm3. For the same substance, the “Average Tumor Size (mm3) ± SEM on Day 10” value ([3]; 4 mg/kg) was 0 ± 0 mm3, the “Average Tumor Size (mm3) ± SEM on Day 14” value ([3]; 4 mg/kg) was 0 ± 0 mm3 and the “Average Tumor Size (mm3) ± SEM on Day 17” value ([3]; 4 mg/kg) was 14.5 ± 7.3 mm3. For the same substance, the “Average Tumor Size (mm3) ± SEM on Day 21” value ([3]; 4 mg/kg) was 102.7 ± 66.2 mm3, the “Average Tumor Size (mm3) ± SEM on Day 23” value ([3]; 4 mg/kg) was 193.3 ± 117.7 mm3 and the “Average Tumor Size (mm3) ± SEM on Day 28” value ([3]; 4 mg/kg) was 627.4 ± 318.1 mm3. The “Average Tumor Size (mm3) ± SEM on Day 31” value ([3]; 4 mg/kg) was 1018.5 ± 498.3 mm3, the “Average Tumor Size (mm3) ± SEM on Day 35” value ([3]; 4 mg/kg) was 1342.9 ± 629.6 mm3 and the “Average Tumor Size (mm3) ± SEM on Day 42” value ([3]; 4 mg/kg) was 2363.0 ± 890.2 mm3. For the same substance, the “Average Tumor Size (mm3) ± SEM on Day 49” value ([3]; 4 mg/kg, Day 49) was 1683.5 ± 1683.5 mm3 and the “Average Tumor Size (mm3) ± SEM on Day 56” value ([3]; 4 mg/kg) was 3108.1 ± 3108.1 mm3.
